# Measured values from patent US8436005B2, “Macrocyclic pyrimidine derivatives” (Abbott Laboratories, priority 2008, dated 2013).
# System: carrageenan-induced thermal hyperalgesia
# Experiment: Acute model of carrageenan-induced thermal hyperalgesia (hotbox assay)
# Type: in vivo
# Conditions: 100 micromole/kg intraperitoneally, 90 minutes after carrageenan, tested 30 minutes after dosing
# Protocol: To assess the effectiveness of representative compounds of the invention against acute model inflammatory pain, animals can be tested in an acute model of carrageenan-induced thermal hyperalgesia (see for example, Honore, et al. Behavioural Brain Research (2006) vol. 167 pp. 355-364; Porreca, et al. Journal of Pharmacology and Experimental Therapeutics (2006) vol. 318 pp. 195-205). Carrageenan is injected into the test paw of the animal, and after 90 minutes, the test drug is administered by intraperitoneal dosing; the effect on thermal hyperalgesia is assessed in a hotbox assay which is done 30 minutes after the intraperitoneal dosing of the test drug. The MPE (maximal percent effect) is reported by comparison to the control paw (not injected with carrageenan), MPE being expressed as 100 times the withdrawal latency of the carrageenan injected paw (in seconds) divided by the withdrawal latency of the control (not injected with carrageenan) paw.
row,Compound,"MPE (maximal percent effect), withdrawal latency of carrageenan injected paw vs control paw [%]"
1,"Nc1nc2c(c(N3C[C@H]4CCCN[C@H]4C3)n1)CCCCC2c1ccccc1 (stereo partly drawn) [Example 21, 9-phenyl-4-((4aR,7aR)-tetrahydro-1H-pyrrolo[3,4-b]pyridin-6(2H,7H,7aH)-yl)-6,7,8,9-tetrahydro-5H-cyclohepta[d]pyrimidin-2-amine]",24
2,"Nc1nc2c(c(N3CCNCC3)n1)CCCCC2c1ccccc1 (centres unmarked) [Example 19, 9-phenyl-4-(piperazin-1-yl)-6,7,8,9-tetrahydro-5H-cyclohepta[d]pyrimidin-2-amine]",26
